We go through 2 molecules from publication PMC3394710, “Insight into Temperature Dependence of GTPase Activity in Human Guanylate Binding Protein-1” (PLoS ONE, 2012).

Experiment in all cases: thermal denaturation, tryptophan fluorescence
Test [1] concerns the target T1, human guanylate binding protein-1 (hGBP1, wild type whGBP1) (Homo sapiens, UniProt P32455).
T1 construct: gene GBP1; purified as in earlier work
T1 sequence (P32455 1-592): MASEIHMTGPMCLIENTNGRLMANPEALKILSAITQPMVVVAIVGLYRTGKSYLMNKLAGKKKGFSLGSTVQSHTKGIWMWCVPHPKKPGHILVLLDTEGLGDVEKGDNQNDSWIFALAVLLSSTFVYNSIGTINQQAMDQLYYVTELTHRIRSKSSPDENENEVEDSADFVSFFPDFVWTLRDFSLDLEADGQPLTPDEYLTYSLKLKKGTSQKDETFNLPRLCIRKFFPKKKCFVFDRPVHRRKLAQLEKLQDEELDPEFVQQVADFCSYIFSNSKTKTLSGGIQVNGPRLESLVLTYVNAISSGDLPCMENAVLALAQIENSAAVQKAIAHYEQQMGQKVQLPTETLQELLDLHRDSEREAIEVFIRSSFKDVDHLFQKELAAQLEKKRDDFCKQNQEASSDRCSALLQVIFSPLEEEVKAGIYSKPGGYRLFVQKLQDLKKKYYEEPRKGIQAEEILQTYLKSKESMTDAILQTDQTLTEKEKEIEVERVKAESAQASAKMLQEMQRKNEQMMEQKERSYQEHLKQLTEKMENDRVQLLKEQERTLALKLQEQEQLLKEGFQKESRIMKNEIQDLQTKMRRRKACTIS
Particulars: 0.5 µM protein, 20 mM Tris-HCl pH 7.5, 100 mM KCl, 5 mM MgCl2, Tm of free protein in the 2nd table, row 6. From the text: thermal denaturation, tryptophan fluorescence on human guanylate binding protein-1 (hGBP1, wild type whGBP1)

Test [2] addresses T2, human guanylate binding protein-1 (hGBP1, wild type whGBP1) (Homo sapiens, UniProt P32455, E313A).
T2 construct: gene GBP1; purified as in earlier work
T2 sequence (P32455 1-592 E313A): T1 sequence (P32455 1-592) with E313A
The note with it: 37 °C; 5 mM MgCl2, 100 mM KCl, pH 7.5; ΔCp assumed as in wild type.

The target of test [3] is T3, human guanylate binding protein-1 (hGBP1, wild type whGBP1) (Homo sapiens, UniProt P32455, S157A).
T3 construct: gene GBP1; purified as in earlier work
T3 sequence (P32455 1-592 S157A): T1 sequence (P32455 1-592) with S157A
Particulars: 37 °C; 5 mM MgCl2, 100 mM KCl, pH 7.5; ΔCp assumed as in wild type.

Substitutions are numbered along the chain they refer to.

Consider `Nc1nc2c(ncn2[C@@H]2O[C@H](COP(=O)(O)OP(=O)(O)NP(=O)(O)O)[C@@H](O)[C@H]2O)c(=O)[nH]1` [GppNHp], for which the “Heat-induced unfolding / T m / (K)” value in test [1] (100 µM GppNHp) was determined as 325.2 ± 0.2 K. In addition, the “difference in ΔG D between analogue free and bound protein” value in test [2] is on record as 2.4 kcal/mol; in test [3] it was 0.9 kcal/mol.
Turning to `Nc1nc2c(ncn2[C@@H]2O[C@H](COP(=O)(O)OP(=O)(O)O)[C@@H](O)[C@H]2O)c(=O)[nH]1` [GDP], the “Heat-induced unfolding / T m / (K)” value in test [1] (500 µM GDP) is recorded as 319.9 ± 0.4 K.
